# How the values were obtained:
# Akt kinase = conditions: 1-3 μM; PC12 cells; 24 hours with NGF
# Procedure: (§1) Approximately 200,000 PC12 cells were plated in a 24 well plate in DMEM with 7.5% FCS and 7.5% DHS and incubated ON.
# (§2) Total cell lysate was electrophoresed on 8-18% gradient SDS gels which were electroblotted to PVDF membranes. Phosphorylated ERK1 and ERK2 were immunodetected by using mouse anti-Phospho-p44/p42 MAP kinase E10 mAb (New England Biolabs #9106) and HRP-linked anti-mouse antibody. Phosphorylated Akt kinase was immunodetected by using rabbit phospho-specific Akt (Ser473) antibody (New England Biolabs # 9271) and HRP-linked anti-rabbit antibody. Bands were detected by chemilumininescence using the ECL system (Amersham).
# the ERKs (ERK1 and ERK2) = conditions: 1-3 μM; PC12 cells; 24 hours with NGF
# Procedure: as §1, §2
# PC12 cells [1] = experiment: Survival of differentiated PC12 cells in serum-free medium (MTS); type: cell-based; conditions: for Survival Effects on Differentiated PC12 Cells in Serum-free Medium (% of 3 nM NGF): 4 days incubation, MTS; for Rescue of PC12 cells in serum-free medium: viability as reduction of MTS
# Procedure: In this experiment the protective effect of the compounds on the survival of the pheochromocytoma cell line PC12 deprived of other survival factors were assessed following differentiation of the cells to a neuron-like phenotype.
# Cells were seeded in collagen coated 96 well plates at a cell density of 8,000/cm^2 in DMEM with 7.5% Foetal Calf Serum (FCS), 7.5% Donor Horse Serum (DHS) and 2 nM NGF and cultured for 6 days. The medium was then changed to DMEM without serum supplemented with the compound in the indicated concentrations. As a positive control, parallel wells receiving serum-free DMEM without addition of vehicle […] 3 nM NGF were included.
# After 4 days of incubation, cell viability was evaluated by using MTS (3-(4,5-dimethylthiazol-2-yl)-5-(3-carboxymethoxyphenyl)-2-(4-sulfonyl)2H-tetrazolium) which is reduced by metabolically active cells. Data are expressed as % of the response seen with 3 nM NGF corrected for residual MTS reduction activity in the parallel serum-free cultures (“% of NGF control”).
# [2] = tested on: dopaminergic neurons from pig E28 ventral mesencephali; conditions: 1 μM; E28 pig VM slice cultures; 21 days in vitro
# Procedure: Ventral mesencephali (VM) were isolated from porcine embryos (E28) under sterile conditions, chopped into 400 μm slices and placed in chilled Gey's balanced salt solution (GIBCO) with glucose (6.5 mg/ml).
# In brief, slices were placed on semiporous membranes (Millipore, 0.3 μm; 4 slices/membrane) placed as inserts in 6-well plates (Costar) with serum containing medium (Gibco BRL). Each well contained 1 ml medium (50% Optimem, 25% horse serum, 25% Hank's balanced salt solution (all GIBCO)) supplemented with D-glucose to a final concentration of 25 mM.
# At day 3, the medium was replaced by defined serum-free medium (Neurobasal medium with B27 supplement from Life Technologies). The cultures were grown in an incubator with 5% CO2 at 36° C. for 21 days after which the sections were immunostained for TH as described in Example 4. […] Untreated cultures served as controls. The medium was changed twice a week and antimitotics and antibiotics were not used at any stage.
# The area of the culture slice was delineated and a counting frame was randomly placed to mark the first area to be sampled.
# [3] = tested on: dopaminergic neurons from rat E14 ventral mesencephali; conditions: 1 μM; E14 rat VM; 7 days in culture
# Procedure: Embryonic rat brains (Wistar; E14) were isolated under sterile conditions placed in chilled Gey's balanced salt solution (GIBCO) with glucose (6.5 mg/ml).
# The ventral mesencephali were dissected out, cut into small tissue pieces, placed in Neurobasal medium with B27 supplement and gently pressed through a 80 μm Nitex filter. The cells were counted using a hemocytometer and plated in a 6 well multi-dish at a density of approximately 2.0×10^6 cells/well. Culture dishes were pre-coated with poly-D-lysine.
# After 1 hour, the medium was removed and fresh medium added (1.5 ml/well). […] Untreated cultures served as controls. The medium was changed every other day and antimitotics and antibiotics were not used at any stage.
# After 7 days in culture, cultures were then immunostained for tyrosine hydroxylase (TH). Briefly, the cells were washed in 0.05M tris-buffered saline (TBS, pH 7.4) containing 1% Triton X-100 for 3×15 minutes and incubated with 10% foetal bovine serum (FBS, Life Technologies) in TBS for 30 minutes. The cells were then incubated for 24 hours at 4° C. with monoclonal mouse anti-TH antibody (Boehringer Mannheim) diluted 1:600 in TBS with 10% FBS. After rinsing in TBS with 1% Triton X-100 for 3×15 minutes, cells were incubated for 60 minutes with biotinylated anti-mouse IgG antibody (Amersham) diluted 1:200 in TBS with 10% FBS. […] TH-immunoreactive (ir) cells were counted manually.
# CREB = conditions: after 5 minutes stimulation (not shown)
# Procedure: The cyclic AMP-responsive element binding protein (CREB) is a post-translationally activated transcription factor that has been implicated in numerous neuronal functions including cell survival, differentiation and neurotransmission.
# Approximately 7.5×10^5 PC12 cells per well were plated in collagen coated 6-well plates in DMEM with 0.75% FCS and 0.75% DHS and incubated for 48 hours. Cells were then further starved for 2 hours in serum free DMEM before stimulation with the indicated compounds for 5, 10 or 20 minutes. Cells were harvested in 1× heated sample buffer (2% SDS, 400 mM Tris, pH 8.0, 10 mM DTT and 0.25 mM Na3VO4) and the cell lysates were electrophoresed on 8-18% gradient SDS gels, which were electroblotted to PVDF membranes.
# Phosphorylated CREB were immunodetected by using rabbit anti-Phospho-CREB (UpState Biotechnology #06-519) followed by HRP-linked anti-rabbit antibody (Amersham Life Science #NA 934). Bands were detected by chemilumininescence using the ECL system (Amersham).
# PC12 cells [4] = conditions: two days
# Procedure: In this experiment the ability of the compounds to potentiate NGF-induced neurite outgrowth in PC12 cells was assessed.
# PC12 cells were seeded in tissue culture plates coated with collagen at a cell density of 15,000/cm^2 in DMEM with 7.5% FCS and 7.5% DHS. Next day the medium was changed to medium supplemented with the NS compound in the absence or presence of NGF.
# Two days after the medium change, cells were fixed in 4% paraformaldehyde and stained for neurofilament. Cells were fixed by in tissue culture plates by incubation in 4% paraformaldehyde in PBS followed permeabilization in 0.05% Triton-X100 in the presence of 10% DHS to block non-specific binding sites. After washing, the plates were incubated with anti-neurofilament (NF) antibody (clone RT97) from Boehringer diluted 1:200 in 0.05% Triton-X100/10% DHS followed by incubation with biotinylated anti-mouse immunoglobulin RPN1001 (Amersham) diluted 1:200. NF-immunoreactive cells were stained using the ABC-complex/HRP kit K0355 (DAKO) and 3,3-diaminobenzidine tetrahydrochloride (DAB) as substrate.
# Estimation of total cell number per well, as well as the total neurite length was done using unbiasedly 2D stereology (CAST-grid system connected to a Olympus BH-2 microscope).
# [5] = tested on: transient global ischaemia in gerbils (hippocampal CA1-layer damage); conditions: gerbil; 4 minutes ischaemia; 2×30 mg/kg ip. after the insult; four days later
# Procedure: Gerbils were anaesthetised with halothane, right and left carotid arteries located and occluded for 4 minutes. Animals were kept at normal body temperature before and after the operation using heating lamps. During the operation, the gerbils were placed on heating pads, the body temperature was controlled and maintained at 37±0.5° C.
# Four days later, the animals were sacrificed, brains removed and cooled to −70° C. Thereafter, the brains were sectioned in 20 μm thick sections of which 5-7 with hippocampal tissue were selected and stained with hematoxylin-eosin.
# The degree of hippocampal damage was categorised into one of four groups:
# Group 1: no damage in the CA1-layer;
# Group 2: the CA1-layer partly damaged;
# Group 3: the CA1-layer completely damaged; and
# Group 4: damage in more then just the CA1-layer. The total ischaemia score was obtained as the sum of scores in the right- and left hemisphere. Kendall's tau test was used for statistic evaluation.
smiles,measurement,setting,value
"CN1CCc2c(-c3ccc(Cl)cc3)cc3c(c2C1)NC(=O)C3=NO.Cl [Compound G-1, 5-(4-Chlorophenyl)-8-methyl-6,7,8,9-tetrahydro-1-H-pyrrolo[3.2-h]isoquinoline-2,3-dione-3-oxime hydrochloric acid salt]",Effect on NGF-induced phosphorylation of the Akt kinase,Akt kinase,potentiate NGF-induced phosphorylation
same,Effect on NGF-induced phosphorylation of the ERKs,the ERKs (ERK1 and ERK2),potentiate NGF-induced phosphorylation
same,Survival Effects on Differentiated PC12 Cells in Serum-free Medium (% of 3 nM NGF),PC12 cells [1]; 0.1 μM,11.09 ± 1.42 % of 3 nM NGF
same,Survival Effects on Differentiated PC12 Cells in Serum-free Medium (% of 3 nM NGF),PC12 cells [1]; 0.2 μM,12.78 ± 2.01 % of 3 nM NGF
same,Survival Effects on Differentiated PC12 Cells in Serum-free Medium (% of 3 nM NGF),PC12 cells [1]; 0.5 μM,28.62 ± 1.77 % of 3 nM NGF
same,Survival Effects on Differentiated PC12 Cells in Serum-free Medium (% of 3 nM NGF),PC12 cells [1]; 0.75 μM,32.05 ± 3.36 % of 3 nM NGF
same,Survival Effects on Differentiated PC12 Cells in Serum-free Medium (% of 3 nM NGF),PC12 cells [1]; 1 μM,52.60 ± 3.40 % of 3 nM NGF
same,Survival Effects on Differentiated PC12 Cells in Serum-free Medium (% of 3 nM NGF),PC12 cells [1]; 2 μM,60.47 ± 2.26 % of 3 nM NGF
same,Survival Effects on Differentiated PC12 Cells in Serum-free Medium (% of 3 nM NGF),PC12 cells [1]; 5 μM,74.85 ± 4.67 % of 3 nM NGF
same,Survival Effects on Differentiated PC12 Cells in Serum-free Medium (% of 3 nM NGF),PC12 cells [1]; 7.5 μM,62.08 ± 3.70 % of 3 nM NGF
same,Survival Effects on Differentiated PC12 Cells in Serum-free Medium (% of 3 nM NGF),PC12 cells [1]; 10 μM,63.80 ± 4.09 % of 3 nM NGF
same,Rescue of PC12 cells in serum-free medium,PC12 cells [1],dose-dependent rescue
same,More TH-immunoreactive cells compared to untreated control cultures,[2],37%
same,More TH-immunoreactive cells compared to untreated control cultures,[3],81%
same,Combined effect of NGF and compound on CREB phosphorylation,CREB,additive effect
same,"Effect on neurite outgrowth in PC12 cells, compound alone","PC12 cells [4]; 1 and 3 μM, without NGF",some effect on neurite outgrowth
same,Potentiation of NGF-induced neurite outgrowth in PC12 cells,PC12 cells [4]; with NGF,significantly potentiate NGF-induced neurite outgrowth
"O=C1Nc2ccc(-c3ccc(Cl)cc3)cc2C1=NO [Compound G-3, 5-(4-Chlorophenyl)isatin-3-oxime]",Survival Effects on Differentiated PC12 Cells in Serum-free Medium (% of 3 nM NGF),PC12 cells [1]; 0.1 μM,−0.34 ± 1.59 % of 3 nM NGF
same,Survival Effects on Differentiated PC12 Cells in Serum-free Medium (% of 3 nM NGF),PC12 cells [1]; 0.2 μM,23.83 ± 3.61 % of 3 nM NGF
same,Survival Effects on Differentiated PC12 Cells in Serum-free Medium (% of 3 nM NGF),PC12 cells [1]; 0.5 μM,28.20 ± 2.55 % of 3 nM NGF
same,Survival Effects on Differentiated PC12 Cells in Serum-free Medium (% of 3 nM NGF),PC12 cells [1]; 0.75 μM,30.66 ± 3.83 % of 3 nM NGF
same,Survival Effects on Differentiated PC12 Cells in Serum-free Medium (% of 3 nM NGF),PC12 cells [1]; 1 μM,36.11 ± 3.02 % of 3 nM NGF
same,Survival Effects on Differentiated PC12 Cells in Serum-free Medium (% of 3 nM NGF),PC12 cells [1]; 2 μM,41.53 ± 3.00 % of 3 nM NGF
same,Survival Effects on Differentiated PC12 Cells in Serum-free Medium (% of 3 nM NGF),PC12 cells [1]; 5 μM,49.63 ± 4.67 % of 3 nM NGF
same,Survival Effects on Differentiated PC12 Cells in Serum-free Medium (% of 3 nM NGF),PC12 cells [1]; 7.5 μM,67.60 ± 5.54 % of 3 nM NGF
same,Survival Effects on Differentiated PC12 Cells in Serum-free Medium (% of 3 nM NGF),PC12 cells [1]; 10 μM,72.23 ± 4.34 % of 3 nM NGF
same,Rescue of PC12 cells in serum-free medium,PC12 cells [1],dose-dependent rescue
"Cl.O=C1Nc2c(cc(-c3ccc(Cl)cc3)c3c2CCCC3)C1=NO [Compound G-2, 5-(4-Chlorophenyl)-6,7,8,9-tetrahydro-1-H-pyrrolo[3.2-h]naphthalene-2,3-dione-3-oxime hydrochloric acid salt]",Animals with no or only partially damage in the CA1 neurons of the hippocampus,[5],≈ 50%
same,Survival Effects on Differentiated PC12 Cells in Serum-free Medium (% of 3 nM NGF),PC12 cells [1]; 0.1 μM,7.77 ± 1.86 % of 3 nM NGF
same,Survival Effects on Differentiated PC12 Cells in Serum-free Medium (% of 3 nM NGF),PC12 cells [1]; 0.2 μM,16.58 ± 4.36 % of 3 nM NGF
same,Survival Effects on Differentiated PC12 Cells in Serum-free Medium (% of 3 nM NGF),PC12 cells [1]; 0.5 μM,17.30 ± 4.43 % of 3 nM NGF
same,Survival Effects on Differentiated PC12 Cells in Serum-free Medium (% of 3 nM NGF),PC12 cells [1]; 0.75 μM,23.54 ± 1.60 % of 3 nM NGF
same,Survival Effects on Differentiated PC12 Cells in Serum-free Medium (% of 3 nM NGF),PC12 cells [1]; 1 μM,27.63 ± 6.91 % of 3 nM NGF
same,Survival Effects on Differentiated PC12 Cells in Serum-free Medium (% of 3 nM NGF),PC12 cells [1]; 2 μM,33.31 ± 5.22 % of 3 nM NGF
same,Survival Effects on Differentiated PC12 Cells in Serum-free Medium (% of 3 nM NGF),PC12 cells [1]; 5 μM,50.25 ± 4.28 % of 3 nM NGF
same,Survival Effects on Differentiated PC12 Cells in Serum-free Medium (% of 3 nM NGF),PC12 cells [1]; 7.5 μM,54.83 ± 4.37 % of 3 nM NGF
same,Survival Effects on Differentiated PC12 Cells in Serum-free Medium (% of 3 nM NGF),PC12 cells [1]; 10 μM,74.66 ± 5.70 % of 3 nM NGF
same,Rescue of PC12 cells in serum-free medium,PC12 cells [1],dose-dependent rescue

# Reference: patent US7595336B2, “Isatine derivatives with neurotrophic activity” (Neurosearch A/S, priority 2002, dated 2009)
